Values joined by “and” are separate entries in the source; they are usually repeats but may differ in a detail not shown here. Identical values can stand only once.
Legend:
[1] = cited from earlier work
Daphnia magna = experiment: Chronic reproduction toxicity test (OECD 211) with passive dosing; format: in vivo; conditions: for Total #dead offspring per mother (per vessel) / Total #offspring per mother (per vessel) / % inhibition (per vessel): individual vessels; for EC10: 21-day reproduction inhibition; for wet weight of parent daphnids, change relative to control: end of 21-d exposure; for % inhibition, avr. / % inhibition (per vessel): reproduction vs controls
Description: (§1) Chronic toxicity tests with D. magna were performed according to the OECD guideline 211^2 using the passive dosing method. Two days before the tests, the exposure solution was predosed by shaking 10 PDMS disks loaded with the test substance in 1 L of medium for 48 h. Each test vessel (250 mL) was first flushed with the dosed solution to equilibrate the vessel walls, then filled with 100 mL of test solution, one PDMS disk, and one juvenile D. magna (<24 h old). The tests were conducted in loosely closed bottles to allow for adequate gas exchange and limit evaporation. The exposure medium was changed three times per week, and the animals were fed D. subspicatus daily (0.2 mg C/Daphnia/day). The number of offspring per adult and behavioral or physiological effects (e.g., size, movement, unhatched eggs) were recorded daily (except weekends). Dissolved oxygen, pH and temperature were also measured each week.
(§2) Tests were performed under static conditions (20 °C, 16:8 h light/dark cycle, 1 klux). Each compound was tested in 10 replicates for controls and limit tests (a single high concentration exposure to screen for significant toxic effects) and with 6 or 10 replicates for concentration–response tests. Reuse of silicone disks was included in some experiments (Table S3). Reproductive inhibition was assessed by counting offspring over 21 days. The number of offspring per mother in treatment groups was compared to controls, and the percent inhibition per replicate was used to generate concentration–response curves. A minimum of five concentrations per compound were tested to determine EC10, EC20, and EC50 values. For each test, three sets of polymers were rotated between loading, dosing, and exposure stages (Figure S2). Initial (before animal and food addition) and final (after 2–3 days of exposure, just before the medium change) water concentrations (CW) were monitored, with the latter collected after centrifugation to remove biomass (e.g., algae, carapaces, or feces).
(§3) All data are presented as average ± standard deviation. Student’s t test was used to analyze significance (p-value >0.05 considered insignificant). Concentration–response curve parameters (effective concentrations and confidence limits) and plots were generated using GraphPad Prism software (V6.01, GraphPad Software, La Jolla, CA, USA). The exposure concentrations were log10 transformed before fitting. Then a four parameters logistic model with variable slope was used to obtain EC10, EC20 and EC50 (see section S5 in SI file for details). Effective chemical activities (EA50) for chronic toxicity were calculated as follows: [drawing 1] 1 […]
(§4) S5. Concentration-response curve (CRC) fitting procedure
(§5) GraphPad Prism version 9.5.1 was used to fit CRC and obtain EC10, EC20, EC50 values and their confidence intervals. The exposure concentrations were log10 transformed before fitting. Then a four parameters logistic model with variable slope was used that describes the response as a function of following four parameters: minimum response (the Bottom), maximum response (the Top), the concentration required to cause a response half-way between the minimum and maximum (the EC50) and the slope of the curve […]
(§6) concentration. The Top was constrained to 100, the Bottom was constrained to 0, the HillSlope was not […]
(§7) !"# %& = !"# %&* − , × !"# 3 * 4
(§8) (, + ,((!"# %&'(<=)×-.!!/!"01)
(§9) Figure S7 Concentration-response curves of four NSO-PAHs based on reproductive inhibition during 21-day chronic toxicity tests with D. magna.
(§10) (1 picture or pasted object on this page, not shown here)

[2] = as above; format: in vivo, Daphnia magna; conditions: Daphnia magna, in vivo, other: waterborne exposure by passive dosing from PDMS disks, 21-day test, read-out: % offspring mortality of total offspring
Description: as §1, §2, §3, §4, §5, §6, §7, §8, §9, §10

## c1ccc2c(c1)ccc1sc3ccccc3c12 [BNT, benzo[b]naphtho[1,2-d]thiophene]
[1]; measured in previous work
  SW (water solubility): 0.026 µg/mL
[1]; n-octanol-water partition coefficient
  log KOW: 5.75
[1]; organic carbon-water partition coefficient
  log KOC: 5.50
Daphnia magna; 0.07 µg/L, 21 days
  #average live offspring: 67
  %offspring mortality: 1.76%
  Total #dead offspring per mother (per vessel): 0 and 2
  % inhibition, avr.: 1.3%
  % inhibition (per vessel): -3.4% and -4.9% and -1.9% and 15.8% and 1.0%
Daphnia magna; 0.07 µg/L, 21 days, all vessels without outlier
  #total live offspring: 334
Daphnia magna; 0.25 µg/L, 21 days
  #average live offspring: 67
  %offspring mortality: 11.09%
  Total #dead offspring per mother (per vessel): 8 and 14 and 9 and 6 and 5
  % inhibition, avr.: 1.3%
  % inhibition (per vessel): -19.6% and -7.8% and 14.3% and 5.5% and 9.9%
Daphnia magna; 0.25 µg/L, 21 days, all vessels
  #total live offspring: 401
Daphnia magna; 0.38 µg/L, 21 days
  #average live offspring: 62
  %offspring mortality: 11.71%
  Total #dead offspring per mother (per vessel): 9 and 16 and 10 and 5 and 1
  % inhibition, avr.: 8.7%
  % inhibition (per vessel): 2.5% and 18.8% and -21.1% and 20.2% and 23.2%
Daphnia magna; 0.38 µg/L, 21 days, all vessels without vessel 2 (X)
  #total live offspring: 309
Daphnia magna; 0.81 µg/L, 21 days
  #average live offspring: 52
  %offspring mortality: 14.75%
  Total #dead offspring per mother (per vessel): 10 and 9 and 3 and 24 and 5
  % inhibition, avr.: 23.2%
  % inhibition (per vessel): 40.9% and 12.9% and 11.4% and 49.8% and 15.8% and 8.4%
Daphnia magna; 0.81 µg/L, 21 days, all vessels
  #total live offspring: 312
Daphnia magna; 97.5-2.5% confidence interval in brackets
  EC10: 0.33 (0.12-0.73) μg L^-1
Daphnia magna; confidence interval in brackets
  EC10: 1.40 (0.49-3.10) nmol L^-1
Daphnia magna; 21-day test, p-value <0.05
  growth of parent D. magna (wet weight): significantly inhibited D. magna growth
Daphnia magna; 21 days, p-value <0.05 vs controls
  LOEC (lowest observed effect concentration, reproduction inhibition): 0.8 μg L^–1
Daphnia magna; BNT avr. medium concentration 0.25 µg/L (methanol dosing 0.063 g/L), 21 days
  Total #offspring per mother (per vessel): 81 and 73 and 58 and 64 and 61
Daphnia magna; BNT avr. medium concentration 0.38 µg/L (methanol dosing 0.125 g/L), 21 days
  Total #offspring per mother (per vessel): 66 and 55 and 82 and 54 and 52
Daphnia magna; BNT avr. medium concentration 0.81 µg/L (methanol dosing 0.25 g/L), 21 days
  Total #offspring per mother (per vessel): 40 and 59 and 60 and 34 and 57 and 62
Daphnia magna; EC50/subcooled liquid solubility, eq 1
  EA50 (effective chemical activity): 0.026 unitless
Daphnia magna; chronic EC10 < 10 μg L^–1
  Classification according to REACH Annex XIII: toxic to aquatic life
Daphnia magna; derived from chronic EC10 using eq 3
  CTLBB (critical target lipid body burden): 0.8 μmol g^-1 octanol
Daphnia magna; 0.07 µg/L (Fig. S9)
  wet weight of parent daphnids, change relative to control: -11%
Daphnia magna; 0.25 µg/L (Fig. S9)
  wet weight of parent daphnids, change relative to control: -19%
Daphnia magna; 0.38 µg/L (Fig. S9)
  wet weight of parent daphnids, change relative to control: -17%
Daphnia magna; 0.81 µg/L (Fig. S9)
  wet weight of parent daphnids, change relative to control: -3%
Daphnia magna; 1.94 µg/L (Fig. S9)
  wet weight of parent daphnids, change relative to control: +13%
Daphnia magna; 4.63 µg/L (Fig. S9)
  wet weight of parent daphnids, change relative to control: -24%
[2]; 0.07 µg/L (Fig. S8)
  mortality at 21 days, 0.07 µg/L: 1.8%
[2]; 0.25 µg/L (Fig. S8)
  mortality at 21 days, 0.25 µg/L: 11.1%
[2]; 0.38 µg/L (Fig. S8)
  mortality at 21 days, 0.38 µg/L: 11.7%
[2]; 0.81 µg/L (Fig. S8)
  mortality at 21 days, 0.81 µg/L: 14.8%
[2]; 1.94 µg/L (Fig. S8)
  mortality at 21 days, 1.94 µg/L: 14.2%
[2]; 4.63 µg/L (Fig. S8)
  mortality at 21 days, 4.63 µg/L: 20.8%
[2]; 12.00 µg/L (Fig. S8)
  mortality at 21 days, 12 µg/L: 28%
